Data reported in the NIST ThermoML archive (doi:10.1021/je8003595).

Assay: mn = molality of the nth substance listed, in mol/kg
Conditions: 101 kPa, Liquid; for viscosity: Capillary tube (Ostwald / Ubbelohde) method

O=C(Oc1ccccc1)c1ccccc1O [phenyl salicylate] + CC#N
Conditions	mass density [kg/m3]	viscosity [mPa·s]
293.15 K, m1 = 0.0096	783.179	0.3086
293.15 K, m1 = 0.0128	783.379	0.3087
293.15 K, m1 = 0.016	783.559	0.3088
293.15 K, m1 = 0.0192	783.709	0.3091
293.15 K, m1 = 0.0224	783.871	0.3092
293.15 K, m1 = 0.0257	784.031	0.3094
293.15 K, m1 = 0.0321	784.222	0.3097
298.15 K, m1 = 0.0097	777.771	0.2867
298.15 K, m1 = 0.0129	777.981	0.2869
298.15 K, m1 = 0.0161	778.151	0.2871
298.15 K, m1 = 0.0194	778.309	0.2873
298.15 K, m1 = 0.0226	778.451	0.2875
298.15 K, m1 = 0.0258	778.609	0.2876
298.15 K, m1 = 0.0323	778.835	0.288
303.15 K, m1 = 0.0097	772.334	0.2649
303.15 K, m1 = 0.013	772.545	0.265
303.15 K, m1 = 0.0162	772.724	0.2652
303.15 K, m1 = 0.0195	772.856	0.2653
303.15 K, m1 = 0.0227	773.025	0.2655
303.15 K, m1 = 0.026	773.165	0.2656
303.15 K, m1 = 0.0326	773.351	0.2659
308.15 K, m1 = 0.0098	766.875	0.2453
308.15 K, m1 = 0.0131	767.071	0.2455
308.15 K, m1 = 0.0164	767.241	0.2457
308.15 K, m1 = 0.0197	767.385	0.2459
308.15 K, m1 = 0.023	767.558	0.2461
308.15 K, m1 = 0.0263	767.695	0.2463
308.15 K, m1 = 0.0329	767.859	0.2466
310.15 K, m1 = 0.0098	764.642	0.238
310.15 K, m1 = 0.0131	764.835	0.2381
310.15 K, m1 = 0.0164	765.015	0.2382
310.15 K, m1 = 0.0197	765.153	0.2384
310.15 K, m1 = 0.023	765.331	0.2385
310.15 K, m1 = 0.0263	765.465	0.2386
310.15 K, m1 = 0.0329	765.629	0.2388
313.15 K, m1 = 0.0099	761.351	0.2272
313.15 K, m1 = 0.0132	761.545	0.2274
313.15 K, m1 = 0.0165	761.711	0.2276
313.15 K, m1 = 0.0198	761.849	0.2278
313.15 K, m1 = 0.0231	762.019	0.2279
313.15 K, m1 = 0.0264	762.135	0.228
313.15 K, m1 = 0.033	762.341	0.2282
